Assay results as given in US20260201335A1, “A Method to Generate Cardiac Pericytes from Human Induced Pluripotent Stem Cells” (The Board of Trustees of the Leland Stanford Junior …, priority 2022, published 2026).

How the values were obtained:
iPSC-CPs [1] = assay: Calcium imaging using Fura-2 AM after carbachol; assay type: cell-based, human
From the text: (§1) FIG. 1. […] Key changes of hallmarks in each cluster are highlighted. […] GraphPad Prism 9 was used for statistical analysis. All data are presented as mean±sem.
(§2) Next, we examined the relative cell contraction capacities of iPSC-CPs versus iPSC-SMCs by measuring intracellular calcium transients after carbachol treatment. […] We also tested the pro-angiogenic potentials of iPSC-CPs.

iPSC-SMCs = assay: Calcium imaging using Fura-2 AM after carbachol; assay type: cell-based, human; settings: iPSC-SMCs after carbachol treatment
From the text: as §1, §2

iPSC-CPs [2] = assay: PrestoBlue viability assay, sunitinib dose-response; assay type: cell-based, human; settings: 72 hr, sunitinib 0 μM-100 μM
From the text: (§3) FIG. 1. Phenotypic characterization and functional assessment of stepwise differentiated iPSC-cardiac pericytes. A, A schematic showing stage-specific inhibition and activation of morphogens to generate pure epicardial cells (EPI) from human induced pluripotent stem cells (iPSCs). […] MPS, mid-primitive streak; LPM, lateral plate mesoderm; SM, splanchnic mesoderm; ST, septum transversum; PEO, pre-epicardial organ. B, Immunofluorescent images (ZO1 and WT1), flow cytometry (WT1) graphs (n=10 iPSC lines, 5M/5F), and quantitative data showing EPI induction efficiency by stepwise (i) and GiWiGi (ii) protocols. C, Quantitative reverse transcription PCR (RT-qPCR) results showing expression levels of canonical (WT1, TBX18, and TCF21) and mature (ALDH1A2, UPK3B, and ANXA8) markers of EPIs derived by both protocols. D, Single-cell ATAC sequencing (scATAC-seq) of EPIs generated by both GiWiGi (ii) and stepwise (iii) protocols are projected to that of human fetal heart cell clusters (i). […] H, Bright field and immunofluorescent images of iPSC-derived SMCs, cardiac fibroblasts (CFs), and endothelial cells (ECs).

CPs = settings: mice, cited from earlier work
primary and iPSC-CPs = assay: Thalidomide rescue of sunitinib-induced CP death (cell morphology); assay type: cell-based, human; settings: sunitinib (5 μM)/thalidomide (1 μM), 72 hr
From the text: as §3

iPSC-CPs [3] = assay: Gene clustering / gene ontology analysis of treated iPSC-CPs (RNA-seq); assay type: cell-based, human; settings: sunitinib (5 μM)/thalidomide (1 μM), 72 hr
stepwise EPIs = assay: Differentiation of stepwise EPIs to iPSC-CPs with exogenous PDGF-BB (flow cytometry); assay type: cell-based, human; settings: exogenous PDGF-BB in pericyte medium
From the text: as §1
Next, we differentiated stepwise EPIs in a commercial pericyte medium and observed that it took at least 12 days to generate iPSC-CPs (FIG. 1E) with low efficiency (FIG. 1F).
Day 11. EPI to Cardiac pericyte, CP. Aspects of the disclosure relate to producing cardiac pericytes through contacting a population of epicardial cells with a cardiac pericyte composition. As described herein, cardiac pericyte induction compositions may vary and generally comprise effective amounts of a PDGF pathway activator in a commercial pericyte medium (ScienCell cat #1201). An exemplary CP induction medium comprises 10 ng/ml PDGF-BB in pericyte medium.

Molecule: C[N+](C)(C)CCOC(N)=O [carbachol]
- calcium amplitude, iPSC-CPs versus iPSC-SMCs (iPSC-CPs [1]; after carbachol treatment): much smaller calcium amplitude
- contraction pattern (intracellular calcium transients) (iPSC-CPs [1]; iPSC-CPs after carbachol treatment): stereotypical contraction pattern
- contraction pattern (intracellular calcium transients) (iPSC-SMCs): stereotypical contraction pattern

Molecule: CCN(CC)CCNC(=O)c1c(C)[nH]c(/C=C2\C(=O)Nc3ccc(F)cc32)c1C [sunitinib]
- sunitinib-induced cell death, sensitivity of iPSC-CPs versus iPSC-CMs (iPSC-CPs [2]): iPSC-CPs were more sensitive than iPSC-CMs
- coronary microvascular abnormalities and cardiac dysfunction, primary target cells (CPs; previous study): CPs were the primary targets

Molecule: O=C1CCC(N2C(=O)c3ccccc3C2=O)C(=O)N1 (stereo not drawn) [thalidomide]
- rescue of CP death (primary and iPSC-CPs): profoundly rescued CP death
- genes associated with cell cycle, pericyte function, and DNA damage (iPSC-CPs [3]): restored genes associated with cell cycle, pericyte function, and DNA damage to a baseline level
- rescue from sunitinib-induced CP loss and cardiac dysfunction (CPs): can rescue mice from sunitinib-induced CP loss and cardiac dysfunction

B1: PDGF-BB: platelet-derived growth factor ligand predominantly secreted by ECs; PDGF pathway activator (protein, UniProt P01127 82-190, looked up)
Platelet-derived growth …: SLGSLTIAEPAMIAECKTRTEVFEISRRLIDRTNANFLVWPPCVEVQRCSGCCNNRNVQCRPTQVQLRPVQVRKIEIVRKKPIFKKATVTLEDHLACKCETVAAARPVT
modifications: homodimer
- generation of iPSC-CPs (PDGFRβ+/CD146+/NG2+/CD13+) (stepwise EPIs): successfully generated pure iPSC-CPs
